Experiments:
Format in all cases: cell-based, human
[1] = system: hPSC-derived Passage 1 and Passage 3 ECs; test: Western blotting of DMSO- or CHIR-treated ECs
Experimental: For extended culture, ECs were selectively dissociated and replated as previously described (Nishihara et al., 2020). Cells were incubated with Accutase until endothelial cells appeared round, typically 2-3 min at 37° C. The plate was tapped to release the ECs while SMLCs remained attached, and the EC-enriched cell suspension transferred to 4× volume of DMEM/F-12 and centrifuged for 5 min, 200×g. Cells were resuspended in hECSR medium and seeded on a new collagen IV-coated plate at approximately 3×10^4 cells/cm^2. hECSR medium was replaced every other day until confluent (typically 6 days). The selective dissociation and seeding described above was repeated, and hECSR medium was again replaced every other day until confluent (typically 6 days). We denote this time point “Passage 3.” In one experiment, these steps were repeated for another two passages. Except where indicated, CHIR 99021 or vehicle (DMSO) was included in the hECSR medium for the entire duration of culture.
To enrich samples from Passage 1 cultures for ECs, the Accutase-based selective dissociation method described above was employed. Dissociated cells were centrifuged for 5 min, 200×g, and resulting cell pellets were lysed in RIPA buffer (Rockland Immunochemicals, Pottstown, PA) supplemented with 1× Halt Protease Inhibitor Cocktail (Thermo Scientific). Passage 3 cells were lysed with the above buffer directly on plates. Lysates were centrifuged at 4° C. for 5 min, 14,000×g, and protein concentration in supernatants quantified using the Pierce BCA Protein Assay Kit (Thermo Scientific). Equal amounts of protein were diluted to equal volume with water, mixed with sample buffer, and heated at 95° C. for 5 min, except lysates intended for GLUT-1 Western blotting, which were not heated. Samples were resolved on 4-12% Tris-Glycine gels and transferred to nitrocellulose membranes. Membranes were blocked for 1 h in tris-buffered saline plus 0.1% Tween-20 (TBST) supplemented with 5% non-fat dry milk. Primary antibodies (see Table 6 for antibody information) diluted in TBST plus 5% non-fat dry milk were added to membranes and incubated overnight at 4° C. on a rocking platform. Membranes were washed five times with TBST. Secondary antibodies (see Table 6 for antibody information) diluted in TBST were added to membranes and incubated for 1 h at room temperature on a rocking platform, protected from light. Membranes were washed five times with TBST and imaged using an Odyssey 9120 (LI-COR, Lincoln, NE). Band intensities were quantified using Image Studio software (LI-COR).

Passage 3 ECs = test: Transendothelial electrical resistance and sodium fluorescein permeability; settings: CHIR-treated vs DMSO-treated
Passage 1 ECs (WTC11) = test: EC proliferation (Ki67 immunocytochemistry, cell cycle analysis); settings: CHIR vs DMSO
Experimental: Images were analyzed using FIJI (ImageJ) software. For epifluorescence images, 5 fields (20×) were analyzed per well, with 3-4 wells per treatment condition. For quantification of cell number, EC colonies were manually outlined, and the Analyze Particles function was used to estimate the number of nuclei within the EC colonies. Nuclei outside the EC colonies were manually counted. EC purity (% EC) was calculated as the number of nuclei within EC colonies relative to total nuclei. To estimate % GLUT-1^+ ECs, cells within the EC colonies with membrane-localized GLUT-1 immunoreactivity (e.g., arrowheads in FIG. 24B) were manually counted. To estimate % Ki67^+ ECs, cells within the EC colonies with at least one nuclear-localized Ki67 punctum were manually counted. For quantification of fluorescence intensity in epifluorescence images, EC colonies were manually outlined, and the Measure function was used to obtain the mean fluorescence intensity for each image channel (fluorophore). A cell-free area of the plate was similarly quantified for background subtraction. Following background subtraction, the mean fluorescence intensity of each protein of interest was normalized to the mean fluorescence intensity of Hoechst to correct for effects of cell density. For confocal images, 3-4 fields (100×) containing only VE-cadherin^+ ECs were analyzed per well, with 4 wells per treatment condition. […]

Cc1c[nH]c(-c2cnc(NCCNc3ccc(C#N)cn3)nc2-c2ccc(Cl)cc2Cl)n1 [CHIR, CHIR 99021]
PLVAP reduction in Western blots ([1]; Passage 1 ECs): not apparent
GLUT-1 and claudin-5 in Western blots ([1]; Passage 1 and Passage 3): upregulation of GLUT-1 and claudin-5
LSR expression ([1]; Passage 1 and Passage 3 ECs): strong increase in LSR expression
PLVAP in Western blots ([1]; Passage 3 ECs, CHIR vs controls): robust downregulation of PLVAP
transendothelial electrical resistance (TEER) (Passage 3 ECs): elevated transendothelial electrical resistance
EC proliferation (Passage 1 ECs (WTC11)): increased EC proliferation
